Results: US9079866B2, “Flap modulators” (JANSSEN PHARMACEUTICA NV, priority 2013, dated 2015)
Structures can show the parent of a compound that is named as a salt. Where two headings read alike, the source gives them in different places.

Legend:
[1] = test system: leukotriene pathway in human whole blood (LTB4 levels); experiment: Human whole blood assay (A23187-stimulated LTB4); format: cell-based; settings: Homo sapiens, read-out: LTB4 IC50 1:1
In short: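 Heparinised human whole blood diluted 1:1 in RPMI, pre-incubated 15 min at 37° Celsius with compound, then stimulated with A23187 (7 μg/mL) for 30 min at 37° Celsius. Plasma LTB4 measured by immunoassay kit; IC50 from 4-parameter fit; single replicate per plate, at least one healthy donor.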

[2] = target: human FLAP (Homo sapiens (Human), UniProt P20292); experiment: FLAP binding assay (HTRF format)
In short: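 Samples were run in duplicate on each of two plates and the plate results averaged. Read-out is the HTRF signal ratio.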

[3] = human whole blood diluted 1:1, A23187-stimulated
[4] = human whole blood diluted 1:1 in RPMI, A23187-stimulated LTB4
[5] = human FLAP wild type, HTRF format, average of two plates, duplicates

human FLAP, sequence (P20292 whole entry): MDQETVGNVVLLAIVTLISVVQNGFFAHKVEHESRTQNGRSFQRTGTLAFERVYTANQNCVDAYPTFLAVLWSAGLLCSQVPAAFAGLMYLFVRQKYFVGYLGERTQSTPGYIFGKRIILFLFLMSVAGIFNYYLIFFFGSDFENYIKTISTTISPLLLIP

Row | SMILES | IC50 [1, 3] [nM] | Ki ([2]; wild type FLAP, HTRF format) [nM] | IC50 [1, 4] [nM] | Ki [2, 5] [nM] | Ki ([2]; read-out: FLAP Binding wild type HTRF Ki) [nM]
1 | Nc1cnc(-c2ccc(-c3cccnc3S(=O)(=O)C3CCS(=O)(=O)CC3)cc2F)cn1 [Example 820, 4-((3-(4-(2-Aminopyrazin-5-yl)-3-fluorophenyl)pyridine-2-yl)sulfonyl)tetrahydro-2H-thiopyran 1,1-dioxide] | 41.6 | 3.3 |  |  | 
2 | CNS(=O)(=O)c1cc(C(F)(F)F)ccc1-c1ccc(-c2cnc(N)nc2)c(F)c1 [Example 325, 4′-(2-Aminopyrimidin-5-yl)-3′-fluoro-N-methyl-4-(trifluoromethyl)biphenyl-2-sulfonamide] |  |  | 91 | 4 | 
3 | CCN(CC)S(=O)(=O)c1ccccc1-c1ccc(-c2cnc(N)cn2)c(F)c1 [Example 47, 4′-(5-Aminopyrazin-2-yl)-N,N-diethyl-3′-fluorobiphenyl-2-sulfonamide] |  |  | 17 | 1 | 
4 | Nc1ncc(-c2ccc(-c3ccccc3S(=O)(=O)NC(C3CC3)C3CC3)cn2)cn1 [Example 684, 2-[6-(2-Aminopyrimidin-5-yl)pyridin-3-yl]-N-(dicyclopropylmethyl)benzenesulfonamide trifluoroacetic acid salt] | 134 | 46.3 |  |  | 
5 | Nc1cnc(-c2ccc(-c3ccccc3CS(N)(=O)=O)cc2F)cn1 [Example 230, 1-[4′-(5-Aminopyrazin-2-yl)-3′-fluorobiphenyl-2-yl]methanesulfonamide hydrochloride] |  |  | 5000 | 1200 | 
6 | NC1CCN(S(=O)(=O)c2ccccc2-c2ccc(-c3cnc4[nH]ccc4n3)c(F)c2)CC1 [Example 381, 1-{[3′-Fluoro-4′-(5H-pyrrolo[2,3-b]pyrazin-2-yl)biphenyl-2-yl]sulfonyl}piperidin-4-amine] |  |  | 141 | 5 | 
7 | C[C@H](NS(=O)(=O)c1ccccc1-c1ccc(-c2cnc(N)nc2)nc1)C(F)(F)F [Example 685, 2-[6-(2-Aminopyrimidin-5-yl)pyridin-3-yl]-N-[(1S)-2,2,2-trifluoro-1-methylethyl]benzenesulfonamide trifluoroacetic acid salt] | 115 | 52.3 |  |  | 
8 | Nc1cnc(-c2ccc(-c3ccccc3S(=O)(=O)N[C@@H]3CCCC[C@@H]3CO)cc2F)cn1 (racemic) [Example 122, racemic (cis)-4′-(5-Aminopyrazin-2-yl)-3′-fluoro-N-[2-(hydroxymethyl)cyclohexyl]biphenyl-2-sulfonamide] |  |  | 18 | 1 | 
9 | Nc1cnc(-c2ccc(-c3ccccc3CS(=O)(=O)N3CC(O)C3)cc2F)cn1 [Example 222, 1-({[4′-(5-Aminopyrazin-2-yl)-3′-fluorobiphenyl-2-yl]methyl}sulfonyl)azetidin-3-ol formic acid salt] |  |  | 638 | 118 | 
10 | Nc1cnc(-c2ccc(-c3ccccc3S(=O)(=O)N3CCC(O)(C(F)(F)F)CC3)cc2F)cn1 [Example 55, 1-{[4′-(5-Aminopyrazin-2-yl)-3′-fluorobiphenyl-2-yl]sulfonyl}-4-(trifluoromethyl)piperidin-4-ol] |  |  | 1230 | 1 | 
11 | Nc1ccnc(Oc2cc(C(F)(F)F)ccc2-c2ccc(-c3cnc(N)nc3)c(F)c2)n1 [Example 559, 5-{2′-[(4-Aminopyrimidin-2-yl)oxy]-3-fluoro-4′-(trifluoromethyl)biphenyl-4-yl}pyrimidin-2-amine] | 55 | 2 |  |  | 
12 | Nc1ncc(-c2ccc(-c3ccccc3S(=O)(=O)N3CCOC(CO)C3)cc2F)cn1 (racemic) [Example 252, racemic (4-{[4′-(2-Aminopyrimidin-5-yl)-3′-fluorobiphenyl-2-yl]sulfonyl}morpholin-2-yl)methanol] |  |  | 206 | 127 | 
13 | Nc1cnc(-c2ccc(-c3ccccc3S(=O)(=O)N3CCc4[nH]ncc4C3)cc2F)cn1 [Example 128, 5-[3-Fluoro-2′-(1,4,6,7-tetrahydro-5H-pyrazolo[4,3-c]pyridin-5-ylsulfonyl)biphenyl-4-yl]pyrazin-2-amine] |  |  | 38 | 1 | 
14 | Nc1cnc(-c2ccc(-c3ccccc3Cl)cc2F)cn1 [Example 469, 5-(2′-Chloro-3-fluorobiphenyl-4-yl)pyrazin-2-amine] | 2350 | 250 |  |  | 
15 | Nc1cnc(-c2ccc(-c3ccccc3Oc3cc(N)ncn3)cc2F)cn1 [Example 535, 6-{[4′-(5-Aminopyrazin-2-yl)-3′-fluorobiphenyl-2-yl]oxy}pyrimidin-4-amine] | 17 | 1 |  |  | 
16 | C[C@@H]([C@@H](O)c1ccccc1)N(C)S(=O)(=O)c1ccccc1-c1ccc(-c2cnc(N)c(F)c2)c(F)c1 [Example 669, 4′-(6-Amino-5-fluoropyridin-3-yl)-3′-fluoro-N-((1S,2S)-1-hydroxy-1-phenylpropan-2-yl)-N-methyl-[1,1′-biphenyl]-2-sulfonamide] | 106 | 4 |  |  | 
17 | Nc1ncc(-c2ccc(-c3ccccc3Oc3cc(C4CC4)ncn3)cc2F)cn1 [Example 637, 5-{2′-[(6-Cyclopropylpyrimidin-4-yl)oxy]-3-fluorobiphenyl-4-yl}pyrimidin-2-amine] | 398 | 18.8 |  |  | 

Row | SMILES | IC50 [1, 3] [nM] | Ki ([2]; wild type FLAP, HTRF format) [nM] | IC50 [1, 4] [nM] | Ki [2, 5] [nM] | Ki ([2]; read-out: FLAP Binding wild type HTRF Ki) [nM]
18 | Nc1cnc(-c2ccc(-c3ccccc3Sc3nccc(N)n3)cc2F)cn1 [Example 216, 2-{[4′-(5-Aminopyrazin-2-yl)-3′-fluorobiphenyl-2-yl]sulfanyl}pyrimidin-4-amine hydrochloride] |  |  | 16 |  | 2
19 | Nc1ccc(-c2ccc(-c3ccccc3S(=O)(=O)N3CCC(O)CC3)cc2F)cn1 [Example 360, 1-((4′-(6-Aminopyridin-3-yl)-3′-fluoro-[1,1′-biphenyl]-2-yl)sulfonyl)piperidin-4-ol] |  |  | 67 | 22 | 
20 | Nc1cnc(-c2ccc(-c3ccc(C(F)(F)F)cc3C(F)(F)F)cc2F)cn1 [Example 562, 5-[3-Fluoro-2′,4′-bis(trifluoromethyl)biphenyl-4-yl]pyrazin-2-amine] | 226 | 55 |  |  | 
21 | Nc1cnc(-c2ccc(-c3cccnc3S(=O)(=O)CCN3CCOCC3)cc2F)cn1 [Example 822, 5-(2-Fluoro-4-(2-((2-morpholinoethyl)sulfonyl)pyridine-3-yl)phenyl)pyrazin-2-amine] | 99.1 | 280 |  |  | 
22 | Nc1ncc(-c2ccc(-c3ccccc3S(=O)(=O)Cc3nc4ccccc4c(=O)[nH]3)cc2F)cn1 [Example 317, 2-(((4′-(2-Aminopyrimidin-5-yl)-3′-fluoro-[1,1′-biphenyl]-2-yl)sulfonyl)methyl)quinazolin-4(3H)-one] |  |  | > 10000 | 335 | 
23 | Nc1cnc(-c2ccc(-c3ccccc3S(=O)(=O)Nc3cccnc3)cc2F)cn1 [Example 31, 4′-(5-Aminopyrazin-2-yl)-3′-fluoro-N-pyridin-3-ylbiphenyl-2-sulfonamide] |  |  | 36 | 4 | 
24 | Nc1cnc(-c2ccc(-c3ccccc3-c3cnccn3)cc2F)cn1 [Example 838, 5-(3-Fluoro-2′-(pyrazin-2-yl)-[1,1′-biphenyl]-4-yl)pyrazin-2-amine] | 350 | 28.6 |  |  | 
25 | Nc1cnc(-c2ccc(-c3ccccc3S(=O)(=O)Nc3ccccc3)cc2F)cn1 [Example 26, 4′-(5-Aminopyrazin-2-yl)-3′-fluoro-N-phenylbiphenyl-2-sulfonamide] |  |  | 26 | 1 | 
26 | CC(C)(C)NS(=O)(=O)c1ccccc1-c1ccc(-c2cnc3[nH]cnc3c2)c(F)c1 [Example 432, N-tert-Butyl-3′-fluoro-4′-(3H-imidazo[4,5-b]pyridin-6-yl)biphenyl-2-sulfonamide] | 19 | 4 |  |  | 
27 | CC(C)(C)NS(=O)(=O)c1ccccc1-c1ccc(-c2cnc3[nH]cnc3n2)c(F)c1 [Example 447, N-tert-Butyl-3′-fluoro-4′-(1H-imidazo[4,5-b]pyrazin-5-yl)biphenyl-2-sulfonamide] | 144 | 3 |  |  | 
28 | Nc1cnc(-c2ccc(-c3ccccc3S(=O)(=O)N3C[C@@H]4C(N)[C@@H]4C3)cc2F)cn1 (stereo partly drawn) [Example 143, endo-3-((4′-(5-Aminopyrazin-2-yl)-3′-fluoro-[1,1′-biphenyl]-2-yl)sulfonyl)-3-azabicyclo[3.1.0]hexan-6-amine] |  |  | 49 | 8 | 
29 | Nc1ccc(-c2ccc(-c3ccccc3S(=O)(=O)NC3CCCCC3)cc2F)cn1 [Example 346, 4′-(6-Aminopyridin-3-yl)-N-cyclohexyl-3′-fluoro-[1,1′-biphenyl]-2-sulfonamide] |  |  | 95 | 5 | 
30 | Nc1cnc(-c2ccc(-c3ccccc3S(=O)(=O)C3CCC3)cc2F)cn1 [Example 196, 5-[2′-(Cyclobutylsulfonyl)-3-fluorobiphenyl-4-yl]pyrazin-2-amine] |  |  | 104 | 10 | 
31 | Nc1cnc(-c2ccc(-c3ccccc3C(=O)N3CCOC(C(F)(F)F)C3)cc2F)cn1 (racemic) [Example 754, racemic 5-(3-Fluoro-2′-{[2-(trifluoromethyl)morpholin-4-yl]carbonyl}biphenyl-4-yl)pyrazin-2-amine] | 377 | 69.9 |  |  | 
32 | C[C@H](NC(=O)c1cc(C(F)(F)F)ccc1-c1ccc(-c2cnc(N)cn2)c(F)c1)C(F)(F)F [Example 790, 2-[4-(5-Aminopyrazin-2-yl)-3-fluoro-phenyl]-5-(trifluoromethyl)-N-[(1S)-2,2,2-trifluoro-1-methyl-ethyl]benzamide] | 25.3 | 1.5 |  |  | 
33 | CC(C)(C)NS(=O)(=O)c1ccccc1-c1ccc(-c2cnc3[nH]ccc3n2)c(F)c1 [Example 371, N-tert-Butyl-3′-fluoro-4′-(5H-pyrrolo[2,3-b]pyrazin-2-yl)biphenyl-2-sulfonamide] |  |  | 15 | 1 | 
